Experimental data: paper PMC4838552 (ChemMedChem, 2016)

How the values were obtained:
[1] = target: RPA70N (Homo sapiens, UniProt P27694); test: FPA competition assay; assay type: binding; conditions: for LE (ligand efficiency): LE = 1.4*pKd/HAC, using the FPA data
[2] = target: ssDNA binding to RPA70AB in the RPA70NAB construct (Homo sapiens, UniProt P27694); test: Fluorescence-based DNA binding assay; conditions: Kd for ssDNA binding to RPA70AB in RPA70NAB, absence vs presence of compound
[3] = Protein binding study; assay type: in vitro ADME
[4] = Caco-2 permeability study; assay type: in vitro ADME; conditions: human

Row | LE (ligand efficiency) [1] | effect on ssDNA binding to RPA [2] | fraction unbound [3] | Papp A→B [4] [×10⁻⁶ cm/s] | potency relative to 11 (fold less potent) ([1]; compared with compound 11) | SMILES
1 | 0.27 | does not affect ssDNA binding to RPA | 0.002 | 29.2 | – | Cc1ccc(C(=O)Nc2cc(Br)ccc2C(=O)O)cc1S(=O)(=O)Nc1ccc(Cl)c(Cl)c1 [Compound 20c, 4-Bromo-2-(3-(N-(3,4-dichlorophenyl)sulfamoyl)-4-methylbenzamido)benzoic acid]
2 | 0.21 | – | – | – | – | Cc1ccc(C(=O)Nc2ccccc2C(=O)O)cc1S(=O)(=O)Nc1ccc(Br)cc1 [Compound 11, 2-(3-(N-(4-bromophenyl)sulfamoyl)-4-methylbenzamido)benzoic acid]
3 | 0.21 | – | – | – | equipotent | Cc1ccc(C(=O)Nc2ccccc2C(=O)O)cc1S(=O)(=O)Nc1cccc(Cl)c1 [Compound 18, 2-(3-(N-(3-chlorophenyl)sulfamoyl)-4-methylbenzamido)benzoic acid]
